Source: patent US20080312291A1, “Heterocyclic Gaba-b Modulators” (priority 2005, published 2008)
pEC50: −log10 of the molar value.

Target: T1, GABABR1a/GABABR2 heterodimer (Homo sapiens, UniProt O75899+Q9UBS5)
T1 construct: expressed in transfected cells; membranes prepared from it)
Assay: [35S]-GTPγS binding assay, potency of PAM
Type: biochemical
Conditions: potency of the positive allosteric modulator; log EC50 for GABA plotted against log concentration of modulator
Description: GABABR1a and GABABR2 were cloned from human brain cDNA and subcloned into pCI-Neo(Promega) and pALTER-1 (Promega), respectively. A GABABR1a-Gαqi5 fusion protein expression vector was constructed using the pCI-Neo-GABABR1a cDNA plasmid and pLEC1-Gαqi5 (Molecular Devices, CA). In order to make the Gαqi5 pertussis toxin insensitive, Cys356 was mutated to Gly using standard PCR methodology with the primers 5′-[…]-3′ (forward) and 5′-GCGGCCG […]-3′ (reverse). The Gαqi5mut cDNA was ligated into the BamHI and NotI sites of pcDNA3.0 (Invitrogen). The GABAB R1a coding sequence was amplified by PCR from pCI-Neo-GABABR1a using the primers, 5′-[…]-3′ (forward) and 5′-[…]-3′ (reverse) and subcloned into the BamHI site of pcDNA3.0-Gαqi5mut. […]
[^35S]-GTPγS binding assays were performed at 30° C. for 45 min in membrane buffer (100 mM NaCl, […], 1 mM EDTA, 5 mM HEPES, pH 7.4) containing 0.025 μg/μl of membrane protein (prepared from the cell lines described above) with 0.01% bovine serum albumin (fatty acid free), 10 μM GDP, 100 μM DTT and 0.53 nM [^35S]-GTPγS (Amersham Pharmacia Biotech) in a final volume of 200 μl. Nonspecific binding was determined in the presence of 20 μM GTPγS. […]

T1 sequence (Q9UBS5 15-961 limits assumed): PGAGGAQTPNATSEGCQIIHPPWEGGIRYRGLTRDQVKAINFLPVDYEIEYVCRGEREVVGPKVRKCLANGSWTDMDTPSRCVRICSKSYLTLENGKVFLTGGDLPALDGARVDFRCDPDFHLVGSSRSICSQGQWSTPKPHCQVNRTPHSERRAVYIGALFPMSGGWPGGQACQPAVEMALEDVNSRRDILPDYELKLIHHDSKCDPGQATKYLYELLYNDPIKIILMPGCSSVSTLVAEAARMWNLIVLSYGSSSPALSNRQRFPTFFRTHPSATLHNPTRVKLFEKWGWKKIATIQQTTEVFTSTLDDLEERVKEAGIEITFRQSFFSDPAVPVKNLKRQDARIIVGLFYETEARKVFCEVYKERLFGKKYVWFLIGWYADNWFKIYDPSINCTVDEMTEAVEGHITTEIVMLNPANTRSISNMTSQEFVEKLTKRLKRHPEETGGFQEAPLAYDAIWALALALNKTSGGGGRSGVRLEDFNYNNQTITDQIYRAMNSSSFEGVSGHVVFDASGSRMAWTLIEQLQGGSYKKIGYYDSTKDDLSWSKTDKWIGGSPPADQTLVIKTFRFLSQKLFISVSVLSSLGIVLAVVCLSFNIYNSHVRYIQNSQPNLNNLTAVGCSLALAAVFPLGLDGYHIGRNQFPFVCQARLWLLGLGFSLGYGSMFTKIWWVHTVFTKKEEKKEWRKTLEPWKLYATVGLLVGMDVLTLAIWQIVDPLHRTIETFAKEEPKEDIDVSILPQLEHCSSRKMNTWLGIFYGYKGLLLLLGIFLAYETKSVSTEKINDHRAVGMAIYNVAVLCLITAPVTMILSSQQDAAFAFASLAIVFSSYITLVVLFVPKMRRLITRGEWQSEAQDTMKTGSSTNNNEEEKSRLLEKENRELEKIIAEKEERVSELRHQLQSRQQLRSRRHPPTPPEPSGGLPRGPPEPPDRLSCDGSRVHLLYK
T1 sequence (O75899 42-941): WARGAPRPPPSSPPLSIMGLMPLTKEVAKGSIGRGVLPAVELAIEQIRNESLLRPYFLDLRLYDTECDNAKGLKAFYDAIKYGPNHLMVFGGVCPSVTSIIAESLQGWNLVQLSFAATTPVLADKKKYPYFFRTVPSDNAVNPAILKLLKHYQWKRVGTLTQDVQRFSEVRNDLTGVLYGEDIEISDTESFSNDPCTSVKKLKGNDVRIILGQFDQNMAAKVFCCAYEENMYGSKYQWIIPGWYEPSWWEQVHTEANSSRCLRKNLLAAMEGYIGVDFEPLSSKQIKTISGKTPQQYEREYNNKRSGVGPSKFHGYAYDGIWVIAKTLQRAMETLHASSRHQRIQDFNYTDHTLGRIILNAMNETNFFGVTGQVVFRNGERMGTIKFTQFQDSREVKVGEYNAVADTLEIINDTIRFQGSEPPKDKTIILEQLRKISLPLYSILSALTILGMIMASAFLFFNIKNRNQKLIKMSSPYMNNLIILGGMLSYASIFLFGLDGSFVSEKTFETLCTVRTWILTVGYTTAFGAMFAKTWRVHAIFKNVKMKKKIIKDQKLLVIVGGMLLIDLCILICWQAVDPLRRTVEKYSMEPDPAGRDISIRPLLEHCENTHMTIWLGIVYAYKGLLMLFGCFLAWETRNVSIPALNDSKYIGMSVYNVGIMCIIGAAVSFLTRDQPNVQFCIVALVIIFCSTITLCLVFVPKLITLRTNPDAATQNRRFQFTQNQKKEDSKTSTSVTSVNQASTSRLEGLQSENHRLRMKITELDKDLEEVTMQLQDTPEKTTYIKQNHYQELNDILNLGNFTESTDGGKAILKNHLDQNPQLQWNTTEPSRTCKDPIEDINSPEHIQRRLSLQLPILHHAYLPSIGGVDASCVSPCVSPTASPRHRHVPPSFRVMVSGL

Row | pEC50 | Structure (SMILES)
1 | 5.71 | CCOC(=O)c1nc(C(C)C)sc1NC(=O)C(CC)c1ccccc1 (centres unmarked) [Example 16, Ethyl 2-isopropyl-5-[(2-phenylbutanoyl)amino]-1,3-thiazole-4-carboxylate]
2 | 5.14 | CCOC(=O)c1nc(C(C)C)oc1NC(=O)c1ccc(C(C)(C)C)cc1 [Example 21, Ethyl 5-[(4-tert-butylbenzoyl)amino]-2-isopropyl-1,3-oxazole-4-carboxylate]
